Measurements: the supplement of paper PMC10307832

Legend:
Assay in all cases: relative viability (nuclei count vs DMSO), 5 days (fraction); higher = more cells survive
Afatinib + AZD7762 = compound: CN(C)C/C=C/C(=O)Nc1cc2c(Nc3ccc(F)c(Cl)c3)ncnc2cc1O[C@H]1CCOC1 [Afatinib] + NC(=O)Nc1cc(-c2cccc(F)c2)sc1C(=O)N[C@H]1CCCNC1 [AZD7762] (partner 0.2 µM)
Outline: (§1)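 Five library-drug doses in √10 steps were combined with a fixed anchor-drug dose, or a single drug was given alone, by pin tool to lung cancer cell lines in 1536-well plates the day after seeding. Nuclei were stained and counted after 5 days. Relative viability is the nuclei count in treated wells over that in vehicle wells, taken as the median of duplicate plates.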

Afatinib + Pictilisib = compound: CN(C)C/C=C/C(=O)Nc1cc2c(Nc3ccc(F)c(Cl)c3)ncnc2cc1O[C@H]1CCOC1 [Afatinib] + CS(=O)(=O)N1CCN(Cc2cc3nc(-c4cccc5[nH]ncc45)nc(N4CCOCC4)c3s2)CC1 [Pictilisib] (partner 1 µM)
Outline: as §1

Afatinib + Phenformin = compound: CN(C)C/C=C/C(=O)Nc1cc2c(Nc3ccc(F)c(Cl)c3)ncnc2cc1O[C@H]1CCOC1 [Afatinib] + N=C(N)NC(=N)NCCc1ccccc1 [Phenformin] (partner 250 µM)
Outline: as §1

Afatinib + Alpelisib = compound: CN(C)C/C=C/C(=O)Nc1cc2c(Nc3ccc(F)c(Cl)c3)ncnc2cc1O[C@H]1CCOC1 [Afatinib] + Cc1nc(NC(=O)N2CCC[C@H]2C(N)=O)sc1-c1ccnc(C(C)(C)C(F)(F)F)c1 [Alpelisib] (partner 2 µM)
Outline: as §1

Cell Line	relative viability (Afatinib + AZD7762; first compound 0.005 µM)	relative viability (Afatinib + AZD7762; first compound 0.01581 µM)	relative viability (Afatinib + AZD7762; first compound 0.05 µM)	relative viability (Afatinib + AZD7762; first compound 0.1581 µM)	relative viability (Afatinib + AZD7762; first compound 0.5 µM)	relative viability (Afatinib + Pictilisib; first compound 0.005 µM)	relative viability (Afatinib + Pictilisib; first compound 0.01581 µM)	relative viability (Afatinib + Pictilisib; first compound 0.05 µM)	relative viability (Afatinib + Pictilisib; first compound 0.1581 µM)	relative viability (Afatinib + Pictilisib; first compound 0.5 µM)	relative viability (Afatinib + Phenformin; first compound 0.005 µM)	relative viability (Afatinib + Phenformin; first compound 0.01581 µM)	relative viability (Afatinib + Phenformin; first compound 0.05 µM)	relative viability (Afatinib + Phenformin; first compound 0.1581 µM)	relative viability (Afatinib + Phenformin; first compound 0.5 µM)	relative viability (Afatinib + Alpelisib; first compound 0.005 µM)	relative viability (Afatinib + Alpelisib; first compound 0.01581 µM)	relative viability (Afatinib + Alpelisib; first compound 0.05 µM)	relative viability (Afatinib + Alpelisib; first compound 0.1581 µM)	relative viability (Afatinib + Alpelisib; first compound 0.5 µM)
201T	0.483	0.626	0.599	0.667	0.62	0.682	0.658	0.662	0.659	0.698	0.475	0.444	0.43	0.398	0.387	1	0.961	0.922	0.918	0.935
A-427	0.587	0.705	0.823	0.676	0.698	0.729	0.684	0.587	0.774	0.658	0.33	0.248	0.371	0.267	0.32	1.04	1.11	1.18	0.973	1.09
ABC-1	0.631	0.717	0.666	0.662	1.09	0.816	0.52	0.679	0.578	0.762	0.245	0.241	0.264	0.239	0.325	1.26	0.856	0.947	0.931	0.988
BEN	0.618	0.704	0.648	0.642	0.636	0.563	0.532	0.565	0.601	0.589	0.29	0.261	0.251	0.253	0.286	1.25	1.07	1.18	1.06	1.1
CAL-12T	0.631	0.594	0.546	0.491	0.505	0.389	0.393	0.347	0.447	0.27	0.57	0.388	0.361	0.244	0.407	1.18	0.973	0.929		0.584
COR-L23						0.689	0.762	0.854	0.955	0.853	0.479	0.446	0.449	0.437	0.45	0.922	0.728	0.935	0.685	0.752
COR-L 105						0.359	0.355	0.302	0.252	0.35	0.294	0.22	0.211	0.203	0.249	0.934	0.45	0.353	0.255	0.241
Calu-6						0.999	0.941	1.01	0.964	0.989						1.05	0.922	1.03	1.01	0.88
ChaGo-K-1	0.801	0.868	0.827	0.871	0.827	0.893	0.45	0.757	0.583	0.88	0.474	0.466	0.444	0.45	0.431					
EBC-1						0.391	0.386	0.465	0.358	0.372						0.787	0.835	0.905	0.81	0.915
EKVX	0.638	0.368	0.373	0.315	0.865	0.391	0.346	0.203	0.118	0.104	0.218	0.222	0.215	0.129	0.197	0.713	0.704	0.46	0.187	0.156
EMC-BAC-2	1.07	1.17	1.14	1.06	1.19	0.516	0.531	0.544	0.529	0.496	0.502	0.512	0.563	0.462	0.476	0.734	0.635	0.635	0.603	0.634
EPLC-272H	0.139	0.229	0.175	0.187	0.168	0.342	0.301	0.297	0.324	0.348	0.35	0.272	0.231	0.24	0.264	0.775	0.818	0.737	0.691	0.731
H3255	0.405	0.284	0.278	0.259	0.287	0.173	0.118	0.132	0.11	0.104	0.228	0.23	0.203	0.202	0.228	0.209	0.135	0.168	0.123	0.123
HARA			0.225	0.217	0.287	0.429	0.331	0.16	0.206	0.195	0.391	0.27	0.327	0.376	0.375	0.45	0.652	0.397	0.313	0.397
HCC-15	1.14	1.39	1.32	1.19	1.05	0.806	0.72	0.647	0.714	0.66	0.487	0.487	0.488	0.47	0.517	0.855	0.816	0.902	0.855	0.889
HCC-44	0.98	0.973	1.07	1	0.959	0.619	0.619	0.638	0.514	0.533	0.233	0.184	0.232	0.395	0.239	0.803	0.854	0.727	0.728	0.872

Cell Line	relative viability (Afatinib + AZD7762; first compound 0.005 µM)	relative viability (Afatinib + AZD7762; first compound 0.01581 µM)	relative viability (Afatinib + AZD7762; first compound 0.05 µM)	relative viability (Afatinib + AZD7762; first compound 0.1581 µM)	relative viability (Afatinib + AZD7762; first compound 0.5 µM)	relative viability (Afatinib + Pictilisib; first compound 0.005 µM)	relative viability (Afatinib + Pictilisib; first compound 0.01581 µM)	relative viability (Afatinib + Pictilisib; first compound 0.05 µM)	relative viability (Afatinib + Pictilisib; first compound 0.1581 µM)	relative viability (Afatinib + Pictilisib; first compound 0.5 µM)	relative viability (Afatinib + Phenformin; first compound 0.005 µM)	relative viability (Afatinib + Phenformin; first compound 0.01581 µM)	relative viability (Afatinib + Phenformin; first compound 0.05 µM)	relative viability (Afatinib + Phenformin; first compound 0.1581 µM)	relative viability (Afatinib + Phenformin; first compound 0.5 µM)	relative viability (Afatinib + Alpelisib; first compound 0.005 µM)	relative viability (Afatinib + Alpelisib; first compound 0.01581 µM)	relative viability (Afatinib + Alpelisib; first compound 0.05 µM)	relative viability (Afatinib + Alpelisib; first compound 0.1581 µM)	relative viability (Afatinib + Alpelisib; first compound 0.5 µM)
HCC-78	0.693	0.542	0.509	0.478	0.449	0.207	0.189	0.19	0.218	0.173	0.892	0.515	0.593	0.648	0.559	0.373	0.345	0.273	0.228	0.217
IA-LM						0.251	0.221	0.227	0.198	0.212						0.653	0.658	0.691	0.693	0.797
NCI-H520						0.353	0.304	0.208	0.232	0.233	0.562	0.593	0.689	0.609	0.57	1.07	0.903	1.02	1.01	0.872
NCI-H661						0.386	0.301	0.318	0.313	0.249	0.292	0.255	0.253	0.247	0.244	0.666	0.389	0.475	0.398	0.349
NCI-H1299						0.84	0.828	0.927	0.647	0.68						1.05	1.04	1.12	1.08	1.04
NCI-H1563						0.6	0.644	0.683	0.637	0.657	0.625	0.667	0.649	0.651	0.623	0.953	0.953	0.87	0.83	1.03
NCI-H1648	0.735	0.596	0.531	0.58	0.546															
NCI-H1650						0.589		0.553	0.487	0.545	0.368		0.351	0.308	0.308					
NCI-H1703	0.13	0.141	0.119	0.121	0.109	0.239	0.246	0.263	0.23	0.205						0.313	0.322	0.286	0.278	0.314
NCI-H2009						0.875	0.822	0.95	0.786	0.74	0.515	0.481	0.545	0.424	0.445	1.23	1.15	1.22	1.17	1.14
NCI-H2023						0.248	0.233	0.261	0.216	0.239	0.436	0.382	0.412	0.291	0.375	0.608	0.544	0.446	0.408	0.434
NCI-H2228						0.343	0.45	0.381		0.279	0.279	0.273	0.31	0.257	0.242	0.74	0.78	0.688		0.589
NCI-H2342	0.562	0.488	0.477	0.434	0.474						0.641	0.488	0.575	0.519	0.477					
SK-LU-1						0.713	0.537	0.561	0.564	0.531	0.634	0.536	0.605	0.511	0.47	1.38	0.918	1.06	1.1	0.913
SK-MES-1						0.273	0.238	0.217	0.213	0.208	0.547	0.64	0.389	0.332	0.369	0.823	0.653	0.396	0.309	0.32
SW 1573						0.547	0.406	0.585	0.484	0.484	0.387	0.376	0.353	0.299	0.393	0.778	0.805	0.805	0.811	0.668
UMC-11						0.981	0.841	0.787	0.725	0.84	0.358	0.33	0.324	0.314	0.303	1	1.03	0.953	0.963	1.13
